Among the targets are CSNK1E (Homo sapiens, UniProt P49674); CSNK1G2 (Homo sapiens, UniProt P78368); OXSR1 (Homo sapiens, UniProt O95747); RIPK2 (Homo sapiens, UniProt O43353); ABL2 (Homo sapiens, UniProt P42684); ADRBK1 (Homo sapiens, UniProt P25098); CAMKK1 (Homo sapiens, UniProt Q8N5S9); CDKL3 (Homo sapiens, UniProt Q8IVW4); DDR1 (Homo sapiens, UniProt Q08345); FGR (Homo sapiens, UniProt P09769); GRK5 (Homo sapiens, UniProt P34947); ITK (Homo sapiens, UniProt Q08881); LATS1 (Homo sapiens, UniProt O95835); NEK11 (Homo sapiens, UniProt Q8NG66); NEK6 (Homo sapiens, UniProt Q9HC98); NEK9 (Homo sapiens, UniProt Q8TD19); NLK (Homo sapiens, UniProt Q9UBE8); PAK2 (Homo sapiens, UniProt Q13177); PBK (Homo sapiens, UniProt Q96KB5); PRKD2 (Homo sapiens, UniProt Q9BZL6); PRKX (Homo sapiens, UniProt P51817); RIPK3 (Homo sapiens, UniProt Q9Y572); SGK3 (Homo sapiens, UniProt Q96BR1); STK32B (Homo sapiens, UniProt Q9NY57); STK32C (Homo sapiens, UniProt Q86UX6); TEC (Homo sapiens, UniProt P42680); TLK1 (Homo sapiens, UniProt Q9UKI8); ERN2 (Homo sapiens, UniProt Q76MJ5); FGFR4 (Homo sapiens, UniProt P22455); LIMK1 (Homo sapiens, UniProt P53667); MYO3A (Homo sapiens, UniProt Q8NEV4).

Holding throughout (conditions): binder

Chain of ITK (Q08881 whole entry): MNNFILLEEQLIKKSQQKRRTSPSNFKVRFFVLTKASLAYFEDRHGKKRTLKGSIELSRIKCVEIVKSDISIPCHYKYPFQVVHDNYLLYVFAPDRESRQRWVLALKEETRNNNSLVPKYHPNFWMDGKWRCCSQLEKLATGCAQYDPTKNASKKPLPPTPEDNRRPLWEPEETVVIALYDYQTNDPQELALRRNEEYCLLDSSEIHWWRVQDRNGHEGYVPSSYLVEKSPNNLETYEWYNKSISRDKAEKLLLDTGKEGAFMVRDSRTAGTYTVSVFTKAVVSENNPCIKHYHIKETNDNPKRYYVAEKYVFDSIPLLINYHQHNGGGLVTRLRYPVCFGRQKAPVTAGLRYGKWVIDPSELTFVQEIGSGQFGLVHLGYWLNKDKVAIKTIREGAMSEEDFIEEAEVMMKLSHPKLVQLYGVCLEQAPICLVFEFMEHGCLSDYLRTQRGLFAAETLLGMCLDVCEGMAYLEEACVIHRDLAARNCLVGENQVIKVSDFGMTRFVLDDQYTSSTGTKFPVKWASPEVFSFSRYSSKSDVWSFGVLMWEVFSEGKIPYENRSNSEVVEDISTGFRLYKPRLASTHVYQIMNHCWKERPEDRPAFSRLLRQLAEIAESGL
Chain of RIPK2 (O43353 whole entry): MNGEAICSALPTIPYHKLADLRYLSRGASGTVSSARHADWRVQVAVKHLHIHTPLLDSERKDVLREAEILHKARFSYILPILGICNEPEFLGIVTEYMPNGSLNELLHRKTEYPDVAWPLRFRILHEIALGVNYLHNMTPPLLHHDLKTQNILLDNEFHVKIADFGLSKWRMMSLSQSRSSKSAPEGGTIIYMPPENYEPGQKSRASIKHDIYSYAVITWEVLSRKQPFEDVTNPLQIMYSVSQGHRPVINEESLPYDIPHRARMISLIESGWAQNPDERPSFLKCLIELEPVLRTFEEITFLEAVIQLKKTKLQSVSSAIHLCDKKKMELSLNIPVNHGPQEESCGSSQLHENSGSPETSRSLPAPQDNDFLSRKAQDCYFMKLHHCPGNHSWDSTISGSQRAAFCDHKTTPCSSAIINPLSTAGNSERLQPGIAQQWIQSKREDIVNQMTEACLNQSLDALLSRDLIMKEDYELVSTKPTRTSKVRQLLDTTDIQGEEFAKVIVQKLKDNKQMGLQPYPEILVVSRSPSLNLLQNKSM
Chain of FGFR4 (P22455 whole entry): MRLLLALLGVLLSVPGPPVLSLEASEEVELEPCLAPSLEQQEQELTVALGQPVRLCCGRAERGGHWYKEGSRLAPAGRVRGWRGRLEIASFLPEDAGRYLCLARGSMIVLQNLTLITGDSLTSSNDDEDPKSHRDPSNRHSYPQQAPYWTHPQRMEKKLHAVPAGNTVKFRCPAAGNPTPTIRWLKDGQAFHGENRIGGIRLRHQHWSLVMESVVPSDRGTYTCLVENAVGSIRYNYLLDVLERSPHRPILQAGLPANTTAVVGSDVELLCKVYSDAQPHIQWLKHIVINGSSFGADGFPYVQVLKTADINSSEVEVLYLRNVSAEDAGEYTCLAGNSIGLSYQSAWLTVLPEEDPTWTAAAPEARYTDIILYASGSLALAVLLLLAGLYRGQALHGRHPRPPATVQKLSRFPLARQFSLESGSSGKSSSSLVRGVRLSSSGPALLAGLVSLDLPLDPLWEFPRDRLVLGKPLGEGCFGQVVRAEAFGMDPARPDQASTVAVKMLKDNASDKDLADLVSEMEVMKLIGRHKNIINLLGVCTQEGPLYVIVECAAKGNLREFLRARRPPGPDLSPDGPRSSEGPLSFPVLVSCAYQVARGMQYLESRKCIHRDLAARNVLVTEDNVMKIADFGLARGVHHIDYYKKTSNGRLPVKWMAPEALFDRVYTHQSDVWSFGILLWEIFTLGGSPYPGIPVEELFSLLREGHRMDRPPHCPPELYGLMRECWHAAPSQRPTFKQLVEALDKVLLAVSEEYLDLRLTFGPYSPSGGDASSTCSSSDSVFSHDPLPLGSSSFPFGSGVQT
Chain of NEK6 (Q9HC98 whole entry): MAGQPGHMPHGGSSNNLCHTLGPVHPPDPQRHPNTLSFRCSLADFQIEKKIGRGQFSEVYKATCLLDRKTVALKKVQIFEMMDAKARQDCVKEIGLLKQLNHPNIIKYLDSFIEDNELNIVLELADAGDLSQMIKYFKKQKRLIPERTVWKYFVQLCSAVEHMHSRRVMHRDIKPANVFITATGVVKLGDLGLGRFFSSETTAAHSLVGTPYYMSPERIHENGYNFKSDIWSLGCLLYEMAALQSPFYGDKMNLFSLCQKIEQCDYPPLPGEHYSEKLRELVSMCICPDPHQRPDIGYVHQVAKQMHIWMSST
Chain of PAK2 (Q13177 whole entry): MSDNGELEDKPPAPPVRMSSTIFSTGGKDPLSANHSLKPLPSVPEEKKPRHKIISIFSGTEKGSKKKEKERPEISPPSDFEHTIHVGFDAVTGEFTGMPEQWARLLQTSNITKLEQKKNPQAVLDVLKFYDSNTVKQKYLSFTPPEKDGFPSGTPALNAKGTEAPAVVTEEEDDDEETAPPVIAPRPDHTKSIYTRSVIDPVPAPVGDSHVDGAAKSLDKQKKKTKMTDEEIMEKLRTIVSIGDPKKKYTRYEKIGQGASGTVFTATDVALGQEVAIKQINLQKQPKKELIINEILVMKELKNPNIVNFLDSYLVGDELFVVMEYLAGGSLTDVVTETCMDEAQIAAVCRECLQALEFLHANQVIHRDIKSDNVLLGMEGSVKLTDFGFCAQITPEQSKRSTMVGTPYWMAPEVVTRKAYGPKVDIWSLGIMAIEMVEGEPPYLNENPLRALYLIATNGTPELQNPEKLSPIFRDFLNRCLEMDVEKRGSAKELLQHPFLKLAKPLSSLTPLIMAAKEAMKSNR
Chain of NLK (Q9UBE8 whole entry): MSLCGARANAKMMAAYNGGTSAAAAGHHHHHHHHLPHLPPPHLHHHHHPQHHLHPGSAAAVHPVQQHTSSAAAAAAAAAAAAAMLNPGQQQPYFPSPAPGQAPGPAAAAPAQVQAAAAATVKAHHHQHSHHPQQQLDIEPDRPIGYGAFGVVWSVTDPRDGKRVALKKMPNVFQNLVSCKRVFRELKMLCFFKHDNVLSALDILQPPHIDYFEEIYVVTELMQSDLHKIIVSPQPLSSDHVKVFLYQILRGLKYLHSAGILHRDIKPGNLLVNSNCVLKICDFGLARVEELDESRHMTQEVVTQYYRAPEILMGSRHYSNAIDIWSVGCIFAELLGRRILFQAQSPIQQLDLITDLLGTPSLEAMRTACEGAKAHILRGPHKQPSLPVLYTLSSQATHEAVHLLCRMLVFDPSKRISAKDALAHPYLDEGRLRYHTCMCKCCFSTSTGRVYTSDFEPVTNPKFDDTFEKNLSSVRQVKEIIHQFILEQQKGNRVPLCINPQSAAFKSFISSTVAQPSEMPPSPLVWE
Chain of PRKX (P51817 whole entry): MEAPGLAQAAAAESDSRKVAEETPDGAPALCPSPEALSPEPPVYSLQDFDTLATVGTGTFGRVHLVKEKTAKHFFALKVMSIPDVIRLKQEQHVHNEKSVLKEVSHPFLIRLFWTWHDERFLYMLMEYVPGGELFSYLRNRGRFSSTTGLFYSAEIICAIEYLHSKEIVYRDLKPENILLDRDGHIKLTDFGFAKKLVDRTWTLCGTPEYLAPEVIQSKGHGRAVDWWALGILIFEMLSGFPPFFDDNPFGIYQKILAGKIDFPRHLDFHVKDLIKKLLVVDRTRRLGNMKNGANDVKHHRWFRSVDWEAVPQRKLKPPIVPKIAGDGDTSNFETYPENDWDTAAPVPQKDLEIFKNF
Chain of NEK11 (Q8NG66 whole entry): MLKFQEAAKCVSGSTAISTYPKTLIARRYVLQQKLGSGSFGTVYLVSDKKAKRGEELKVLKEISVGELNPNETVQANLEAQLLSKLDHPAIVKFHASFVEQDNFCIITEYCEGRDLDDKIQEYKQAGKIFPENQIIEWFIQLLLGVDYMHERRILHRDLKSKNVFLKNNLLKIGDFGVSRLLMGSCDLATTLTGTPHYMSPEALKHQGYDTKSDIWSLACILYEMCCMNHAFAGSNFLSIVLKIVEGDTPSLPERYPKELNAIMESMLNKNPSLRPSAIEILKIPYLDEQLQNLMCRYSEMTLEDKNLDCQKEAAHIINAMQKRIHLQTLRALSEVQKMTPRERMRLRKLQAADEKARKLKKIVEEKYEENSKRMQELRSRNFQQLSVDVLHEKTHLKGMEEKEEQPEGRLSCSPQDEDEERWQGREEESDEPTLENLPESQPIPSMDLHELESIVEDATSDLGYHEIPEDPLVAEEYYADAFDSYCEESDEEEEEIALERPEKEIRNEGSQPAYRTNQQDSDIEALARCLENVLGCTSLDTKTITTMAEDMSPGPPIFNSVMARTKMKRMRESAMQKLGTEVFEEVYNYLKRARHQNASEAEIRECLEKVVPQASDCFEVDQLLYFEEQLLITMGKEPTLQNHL
Chain of STK32B (Q9NY57 whole entry): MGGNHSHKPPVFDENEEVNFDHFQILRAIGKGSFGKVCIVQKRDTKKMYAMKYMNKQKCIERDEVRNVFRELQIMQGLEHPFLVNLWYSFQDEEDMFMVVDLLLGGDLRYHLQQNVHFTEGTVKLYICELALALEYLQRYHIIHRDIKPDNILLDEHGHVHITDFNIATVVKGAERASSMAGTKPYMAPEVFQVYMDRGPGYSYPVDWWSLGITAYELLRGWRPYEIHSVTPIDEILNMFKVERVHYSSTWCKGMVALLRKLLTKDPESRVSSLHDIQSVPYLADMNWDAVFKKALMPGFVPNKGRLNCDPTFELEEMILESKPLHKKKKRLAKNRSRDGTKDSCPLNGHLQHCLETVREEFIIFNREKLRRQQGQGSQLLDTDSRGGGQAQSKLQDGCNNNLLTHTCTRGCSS

In the case of `CC(=O)c1cccc(-c2cnc3ccc(NCC4CC4)nn23)c1` [compound 1, K00135], the “ΔTm inhibitor 1” value stood at 4.4 °C at CSNK1E, 2.5 °C at CSNK1G2, 0.5 °C on OXSR1 and 6.0 °C on RIPK2.
As for `CCN1/C(=C/C(C)=O)Sc2ccc(OC)cc21` [compound 2, TG003], the “ΔTm inhibitor 2” value was -0.5 °C at ABL2; 0.1 °C at ADRBK1; 0.0 °C at CAMKK1; 0.1 °C at CDKL3; 0.4 °C on DDR1; -0.2 °C on FGR. The “ΔTm inhibitor 2” value on GRK5 was 0.8 °C; at ITK it was 1.1 °C; at LATS1 it was 0.1 °C; at NEK11, 0.6 °C; at NEK6, -1.0 °C; at NEK9, 0.5 °C. The “ΔTm inhibitor 2” value on NLK is -0.2 °C; on PAK2, -0.6 °C; at PBK, 0.5 °C; at PRKD2, 0.7 °C; at PRKX it was -0.2 °C; on RIPK3, -0.6 °C. The “ΔTm inhibitor 2” value at SGK3 was -0.1 °C; on STK32B, -0.2 °C; at STK32C it was -0.9 °C; at TEC, 1.0 °C; on TLK1, -0.1 °C.
Take `Nc1nccc(-c2ccc3noc(-c4ccc(Cl)cc4)c3c2)n1` [compound 4, K00972]: the “ΔTm inhibitor 4” value at ERN2 was 0.4 °C; at FGFR4 it was 0.2 °C; on LIMK1, 0.5 °C; on MYO3A, 0.2 °C.

The record behind these values is publication doi:10.1101/2020.07.01.182642v1 (biorxiv, 2020).
